The GI50 is the concentration at which growth is held to half of that of the control. By TGI is commonly meant the concentration giving total growth inhibition.

The source of these data is PubChem BioAssay (NCI).

Among the test systems are SR leukemia; HCC-2998 colon; OVCAR-4 ovarian; CAKI-1 renal; SF-268 CNS; SK-MEL-28 melanoma; HCT-15 colon; NCI-H226 lung; CCRF-CEM leukemia; RPMI-8226 leukemia.
What all share (assay): DTP human tumour cell line panel, 48 h

SMILES strings stand for the structures. Several values for one entry are separate records, joined by “and”; a condition that tells them apart may be missing. Equal values may be shown once.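 Assay format: 96-well plates, 48-hour exposure. GI50 = concentration required for 50% inhibition of growth. Definition used: TGI = concentration required for complete inhibition of growth.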

Regarding `CC[C@@H](C(=O)[C@H](C)[C@H](O)[C@@H](C)[C@H]1O[C@H]([C@@H](CC)C(=O)O)CC[C@H]1C)C1O[C@]2(C=C[C@@H](O)[C@]3(CC[C@@](C)([C@H]4CC[C@](O)(CC)[C@H](C)O4)O3)O2)[C@H](C)C[C@@H]1C` (some centres not stated), the concentration for 50% growth inhibition (GI50) with SR leukemia is 0.0827 µM; with HCC-2998 colon, 0.178 µM; in the assay with OVCAR-4 ovarian, 0.821 µM; in the assay with CAKI-1 renal, 0.637 µM; in the assay on SF-268 CNS, 1.14 µM; in the assay on SK-MEL-28 melanoma, 0.84 µM. Also, the GI50 with HCT-15 colon was 0.639 µM; with NCI-H226 lung it was 0.598 µM; in the assay on CCRF-CEM leukemia, 0.283 µM; in the assay with RPMI-8226 leukemia, 0.171 µM. The TGI in the assay on SR leukemia is 5.73 µM; in the assay on HCC-2998 colon, 11.9 µM; in the assay on OVCAR-4 ovarian, 44.8 µM; with CAKI-1 renal, 13.9 µM; in the assay with SF-268 CNS it was 16.2 µM; in the assay with SK-MEL-28 melanoma, 2.09 µM. Further, the total growth inhibition concentration (TGI) in the assay with HCT-15 colon was determined as 26.5 µM; in the assay with NCI-H226 lung, 5.83 µM; in the assay with CCRF-CEM leukemia, 12.3 µM; in the assay with RPMI-8226 leukemia, 3.07 µM.

With `CCC(CCC(C)C1CCC2C3CC=C4CC(OC5OC(CO)C(O)C(O)C5O)CCC4(C)C3CCC12C)C(C)C` (configuration not stated), the TGI in the assay with SR leukemia, with HCC-2998 colon, in the assay with OVCAR-4 ovarian, in the assay with CAKI-1 renal, with SF-268 CNS and in the assay with SK-MEL-28 melanoma was above 100 µM each time. The TGI in the assay on HCT-15 colon, in the assay with NCI-H226 lung, in the assay on CCRF-CEM leukemia and in the assay with RPMI-8226 leukemia was above 100 µM in each case.

Take `CC(=O)c1ccc(Nc2nc(Nc3ccc(F)cc3)nc(Nc3ccc(F)cc3)n2)cc1`: the GI50 in the assay with SR leukemia was 4.24 µM; with HCC-2998 colon, 9.95 µM; in the assay on OVCAR-4 ovarian it was 10.9 µM; with CAKI-1 renal it was 9.02 µM; in the assay on SF-268 CNS it was 10.8 µM; in the assay with SK-MEL-28 melanoma, 11 µM. Moreover, the GI50 with HCT-15 colon is 8.49 µM; in the assay on NCI-H226 lung, 20.7 µM; with CCRF-CEM leukemia it was 3.77 µM; in the assay with RPMI-8226 leukemia it was 94.9 µM. In addition, the TGI in the assay on SR leukemia was above 100 µM; with HCC-2998 colon, above 100 µM; in the assay on OVCAR-4 ovarian, 41.3 µM; with CAKI-1 renal, 27.7 µM; in the assay with SF-268 CNS, 46.6 µM; in the assay with SK-MEL-28 melanoma it was 45 µM. Further, the total growth inhibition concentration (TGI) in the assay on HCT-15 colon, with NCI-H226 lung, in the assay with CCRF-CEM leukemia and with RPMI-8226 leukemia was above 100 µM throughout.

Consider `Cc1cccc2nc3cccc(C(=O)NCCNCCNCCNC(=O)c4cccc5nc6cccc(C)c6nc45)c3nc12`, for which the concentration for 50% growth inhibition (GI50) with SR leukemia was below 0.01 µM; in the assay on HCC-2998 colon, 0.0416 µM; with OVCAR-4 ovarian, 0.168 µM; in the assay with CAKI-1 renal, 0.0461 µM; in the assay on SF-268 CNS, below 0.01 µM; in the assay on SK-MEL-28 melanoma, 0.101 µM. In addition, the GI50 is 0.0268 µM in the assay on HCT-15 colon, below 0.0128 µM with NCI-H226 lung, 0.0859 µM with CCRF-CEM leukemia and below 0.01 µM in the assay on RPMI-8226 leukemia. Also, the concentration for total growth inhibition (TGI) with SR leukemia was found to be 1.22 µM; in the assay with HCC-2998 colon, 0.837 µM; with OVCAR-4 ovarian, 5.09 µM; in the assay on CAKI-1 renal it was 23.2 µM; with SF-268 CNS, 1.7 µM; with SK-MEL-28 melanoma it was 4.37 µM. Further, the TGI was above 100 µM with HCT-15 colon, 0.274 µM in the assay on NCI-H226 lung, 2.86 µM in the assay with CCRF-CEM leukemia and 0.769 µM with RPMI-8226 leukemia.

On to `CN1CC[C@]2(c3cccc(O)c3)CC(=O)/C(=C/c3ccccc3)[C@H]1C2`, for which the GI50 with SR leukemia was 1.35 µM; with HCC-2998 colon, 3.11 µM; in the assay on SF-268 CNS it was 6.04 µM; in the assay with HCT-15 colon it was 2.5 µM; in the assay with NCI-H226 lung, 9.03 µM; in the assay on CCRF-CEM leukemia, 2.53 µM. In addition, the GI50 in the assay on RPMI-8226 leukemia is 2.1 µM. The TGI in the assay with SR leukemia was found to be 5.9 µM; in the assay on HCC-2998 colon, 9.99 µM; with OVCAR-4 ovarian it was 11 µM; in the assay with CAKI-1 renal, 9.93 µM; with SF-268 CNS it was 18.2 µM; in the assay on SK-MEL-28 melanoma it was 12.8 µM. For the same compound, the concentration for total growth inhibition (TGI) is 10.6 µM in the assay with HCT-15 colon, 28.6 µM with NCI-H226 lung, 9.36 µM with CCRF-CEM leukemia and above 22 µM in the assay with RPMI-8226 leukemia.

Take `CSc1ccc2c(c1)N(CCC1CCCCN1C)c1ccccc1S2` (configuration not stated): the GI50 in the assay on SR leukemia was 4.45 µM and 3.41 µM; in the assay with HCC-2998 colon, 3.12 µM and 4.54 µM; in the assay on OVCAR-4 ovarian, 7.99 µM and 5.22 µM; in the assay on CAKI-1 renal, 3.23 µM and 4.91 µM; in the assay on SF-268 CNS it was 7.7 µM and 4.85 µM; in the assay on SK-MEL-28 melanoma, 4.08 µM and 1.86 µM. Further, the GI50 in the assay with HCT-15 colon is 5.11 µM and 4.01 µM; in the assay on NCI-H226 lung, 11.2 µM and 11.4 µM; in the assay on CCRF-CEM leukemia it was 5.45 µM and 2.26 µM; with RPMI-8226 leukemia it was 8.8 µM and 2.23 µM. Also, the TGI in the assay on SR leukemia is 17.2 µM and 12.4 µM; in the assay with HCC-2998 colon, 11.5 µM and 14.1 µM; with OVCAR-4 ovarian, 20.3 µM and 16.9 µM; with CAKI-1 renal it was 13 µM and 18.3 µM; in the assay with SF-268 CNS, 21.6 µM and 17.7 µM; in the assay with SK-MEL-28 melanoma, 14.3 µM and 3.63 µM. Also, the TGI is 17.5 µM and 14.6 µM in the assay on HCT-15 colon; 28.5 µM and 30.3 µM with NCI-H226 lung; 21.1 µM and 27.4 µM with CCRF-CEM leukemia; 27.1 µM and 6.05 µM in the assay on RPMI-8226 leukemia.

As to `C[C@]12CC[C@H]3[C@@H](CCC4=CC(=O)CC[C@@]43C)[C@@H]1CC[C@@H]2C(=O)COS(=O)(=O)c1ccc(Br)cc1`, the TGI in the assay on SR leukemia was 3.12 µM; with HCC-2998 colon it was 8.74 µM; with OVCAR-4 ovarian, above 51.2 µM; in the assay with CAKI-1 renal, 19.7 µM; in the assay on SF-268 CNS, 34.6 µM; in the assay with SK-MEL-28 melanoma it was 43.5 µM. Also, the TGI came to 55.7 µM in the assay with HCT-15 colon, 39.3 µM in the assay with NCI-H226 lung, 3.01 µM in the assay on CCRF-CEM leukemia and 12 µM with RPMI-8226 leukemia.

Turning to `O=C(O)C1C2C=CC(C2)C1C(=O)O` (configuration not stated), the GI50 in the assay with SR leukemia, in the assay with HCC-2998 colon, with OVCAR-4 ovarian, in the assay with CAKI-1 renal, in the assay on SF-268 CNS and in the assay on SK-MEL-28 melanoma was above 100 µM in each case. For the same compound, the GI50 in the assay with HCT-15 colon, in the assay with NCI-H226 lung, with CCRF-CEM leukemia and in the assay with RPMI-8226 leukemia was above 100 µM each time. Besides, the TGI in the assay on SR leukemia, with HCC-2998 colon, with OVCAR-4 ovarian, in the assay on CAKI-1 renal, in the assay with SF-268 CNS and in the assay with SK-MEL-28 melanoma was above 100 µM in each case. The TGI in the assay on HCT-15 colon, with NCI-H226 lung, in the assay with CCRF-CEM leukemia and in the assay on RPMI-8226 leukemia was above 100 µM in each case.
